Data published in patent US9844599B2, “Nitric oxide releasing produgs of therapeutic agents” (priority 2013, dated 2017).
“Also recorded” adds a separate entry of the source. Where two headings read alike, the source gives them in different places. Each block holds one molecule with its values, some of them ahead of it.

How the values were obtained:
[1] = Stability of prodrugs / release of parent drug in Simulated Gastric Fluid (SGF); type: in vitro ADME
Procedure: SGF was prepared according to the procedure described in Test Solution—USP. Thus, 0.2 g of sodium chloride and 0.32 g of purified pepsin (Sigma, derived from porcine stomach mucosa with an activity of 800 to 2500 units per mg of protein) were dissolved in 0.7 mL of hydrochloric acid and sufficient water to make 100 mL. This test solution has a pH of about 1.2 and was utilized for in-vitro studies.
The solution of the test compound in acetonitrile (10 μL of […] solution) was dissolved in 990 μL of biological fluid (SGF/SIF/Human Plasma). The resulting reaction mixtures were incubated at 37° C. At specified time intervals, aliquots (60 μL) were withdrawn and added to acetonitrile (200 μL) and mixed well by vortexing for 2 minutes. The mixture was centrifuged at 13000 rpm for 15 min at 4° C., and the supernatant analyzed by HPLC. The amounts (area percentages) of the remaining intact prodrug (if any) and the released metabolite(s) were estimated by HPLC.
This was performed by using HPLC instrument (Waters alliance), pump 2695, and PDA detector 2996 with the following chromatographic parameters: Wavelength −210 nm; Column-Waters X-Terra RP-18, 150×3.9 mm, 5 μm; Injection volume, 25 μL; Run time, 13 min. Mode of operation was linear gradient with mobile phase A: Acetonitrile and B: 0.1% TFA in water (filtered and degassed). Flow rate was 1.0 mL/min at 25° C.

[2] = system: serum thromboxane B2 (TXB2) formation; experiment: Inhibition of serum thromboxane B2 (TXB2) formation; type: in vivo, Sprague-Dawley (SD) rats; conditions: Rattus norvegicus, po, 168 h; SD rats, 30 mg/kg aspirin or equimolar 44.82 mg/kg, o.d., 7 days
Procedure: Aspirin is used as an antiplatelet agent for the treatment of cardiovascular complications. […] It is therefore possible to achieve complete suppression of platelet. TXA2 (and also TXB2) formation via chronic administration of aspirin at a dose of 30 mg/daily (Patrignani, P., et al. J. Clin. Invest. 1982, 69, 1366-1372). The antiplatelet activity of aspirin (30 mg/kg) and its prodrug I-D1-R1 (at a dose equimolar to 30 mg/kg dose of aspirin) was evaluated in Sprague-Dawley (SD) rats through estimation of serum TXB2 levels (Esser, R. et al., Br. J. Pharmacol. 2006, 144, 538-550) and the experimental results are presented in FIG. 7.
In vivo TXB2 inhibition potential of aspirin and NO-aspirin prodrugs was assessed in Sprague-Dawley (SD) rats; the serum TXB2 levels were estimated according to the reported procedure (R. Esser, R., et al., Br. J. Pharmacol. 2006, 144, 538-550). Thus, vehicle, aspirin (30 mg/kg) or aspirin prodrug I-D1-R1 (44.82 mg/kg which is equivalent to 30 mg/kg dose of aspirin) were administered orally to the overnight fasted SD rats. […] The serum TXB2 concentrations were determined by enzyme immunoassay (EIA) using commercially available TXB2 estimation kit (Cayman Chemicals, USA), according to the method described in kit information booklet.

[3] = Acute gastric ulcerogenesis activity study; conditions: rats, acute oral; aspirin 100 mg/kg, I-D1-R1 298.85 mg/kg, naproxen 100 mg/kg, I-D2-R1 138.67 mg/kg
Procedure: The animals were sacrificed after 5 h of drug administration. The stomachs of the treated animals were separated, perfused with 2% formalin (10 mL), and a large curvature was excised. The severity of the mucosal damage was assessed on the basis of the size of the observed ulcer lesions in the images captured using a stereomicroscope attached to a digital camera (Stemi 2000, Zeiss, Germany). The Image Pro Plus software (version 5.1) was used to quantify the hemorrhagic/ulcer lesions in pixels and to convert them into mm^2. The total area of lesions was calculated for each treatment group and the measure of gastric ulcers (Mean±SEM) (mm^2) was estimated (FIGS. 5 and 6).

[4] = Stability of prodrugs at RT and at 50° C. (capped vials); type: physicochemical
[5] = simulated gi fluid, 0 h, 1 µM, pH 1.2
[6] = simulated gi fluid, 5 min, 1 µM, pH 1.2
[7] = simulated gi fluid, 10 min, 1 µM, pH 1.2
[8] = simulated gi fluid, 0.5 h, 1 µM, pH 1.2
[9] = simulated gi fluid, 1 h, 1 µM, pH 1.2
[10] = simulated gi fluid, 2 h, 1 µM, pH 1.2
[11] = simulated gi fluid, 3 h, 1 µM, pH 1.2
[12] = simulated gi fluid, 1 µM, pH 1.2

Compound: CCCCC(OC(=O)[C@@H](C)c1ccc2cc(OC)ccc2c1)O[N+](=O)[O-] (stereo partly drawn) [I-D2-R4, (2S)-1-(nitrooxy)pentyl 2-(6-methoxynaphthalen-2-yl)propanoate]
Release of parent drug on incubation in SGF (in words) [1]: released appreciable amounts of the parent drug naproxen
Prodrug Remaining (%) [1, 5]: 100%
t1/2 of prodrug in SGF [1, 12]: >3 h
Prodrug Remaining (%) [1, 6]: 97.74%
Prodrug Remaining (%) [1, 7]: 96.18%
Prodrug Remaining (%) [1, 8]: 90.53%
Prodrug Remaining (%) [1, 9]: 88.87%
Prodrug Remaining (%) [1, 10]: 79.97%
Prodrug Remaining (%) [1, 11]: 71.04%

Compound: CC(OC(=O)CCCc1ccc(N(CCCl)CCCl)cc1)O[N+](=O)[O-] (stereo not shown) [I-D3-R1, 1-(nitrooxy)ethyl 4-(4-(bis(2-chloroethyl)amino)phenyl)butanoate]
Prodrug Remaining (%) ([1]; SGF, 0 min): 92.12%
Prodrug Remaining (%) ([1]; SGF, 5 min): 20.49%
Prodrug Remaining (%) ([1]; SGF, 10 min): 13.84%
Prodrug Remaining (%) ([1]; SGF, 15 min): 8.59%
Prodrug Remaining (%) ([1]; SGF, 30 min): 0.00%
Prodrug Remaining (%) ([1]; SGF, 60 min): 0.00%
Prodrug Remaining (%) ([1]; SGF, 120 min): 0.00%
Prodrug Remaining (%) ([1]; SGF, 180 min): 0.00%
Release of parent drug on incubation in SGF (in words) ([1]; SGF, whole time course): quantitative release of the parent drug, chlorambucil; also recorded: released its parent drug chlorambucil quantitatively
half-life at 1 µM ([1]; simulated gi fluid, pH 1.2, SGF, read-out: t1/2 of prodrug in SGF): < 5 min

Compound: CC(=O)Oc1ccccc1C(=O)Oc1cccc(CO[N+](=O)[O-])c1 [II-D1-X1, reference compound]
Fate of prodrug on incubation in SGF (in words) [1]: remained intact
% of Prodrug remaining (μM) [1, 5]: 100.00%
% of Prodrug remaining (μM) [1, 6]: 100.00%
% of Prodrug remaining (μM) [1, 7]: 100.00%
% of Prodrug remaining (μM) [1, 8]: 100.00%
% of Prodrug remaining (μM) [1, 9]: 100.00%
% of Prodrug remaining (μM) [1, 10]: 100.00%

Compound: COc1ccc2cc([C@H](C)C(=O)OCCO[N+](=O)[O-])ccc2c1 [II-D2-X2, reference compound]
Fate of prodrug on incubation in SGF (in words) [1]: remained intact
Release of parent drug on incubation in SGF (in words) [1]: no release of parent drug naproxen
Prodrug Remaining (%) [1, 5]: 100.00%
Prodrug Remaining (%) [1, 6]: 99.68%
Prodrug Remaining (%) [1, 7]: 99.79%
Prodrug Remaining (%) [1, 8]: 99.75%
Prodrug Remaining (%) [1, 9]: 99.67%
Prodrug Remaining (%) [1, 10]: 99.39%
Prodrug Remaining (%) [1, 11]: 99.19%

Further lines, with some results ahead:

AUC of aspirin (released / remaining) in SGF ([1]; 1 µM, pH 1.2): 12348 µM·h
Compound: CC(=O)Oc1ccccc1C(=O)O [Aspirin, aspirin, reference compound]
inhibition at 30 mg/kg [2]: 76%

Nap (Naproxen) formed on storage ([4]; 50° C., 0 h): NIL
Prodrug (area %) on storage ([4]; 50° C., 0 h): 99.12%
Nap (Naproxen) formed on storage ([4]; 50° C., 25 d): 0.33%
Prodrug (area %) on storage ([4]; 50° C., 25 d): 99.00%
Nap (Naproxen) formed on storage ([4]; RT, 0 h): NIL
Prodrug (area %) on storage ([4]; RT, 0 h): 99.12%
Nap (Naproxen) formed on storage ([4]; RT, 25 d): 0.2%
Prodrug (area %) on storage ([4]; RT, 25 d): 98.87%
Stability on storage (in words) ([4]; both at RT and at 50° C., up to 25 days): remained stable
Prodrug Remaining (%) [1, 5]: 100.00%
Prodrug Remaining (%) [1, 6]: 84.68%
Prodrug Remaining (%) [1, 7]: 74.58%
Prodrug Remaining (%) [1, 8]: 32.79%
Prodrug Remaining (%) [1, 9]: 0.00%
Prodrug Remaining (%) [1, 10]: 0.00%
Prodrug Remaining (%) [1, 11]: 0.00%
melting point: 69 to 71 °C
Compound: COc1ccc2cc([C@H](C)C(=O)OC(C)O[N+](=O)[O-])ccc2c1 (stereo partly drawn) [I-D2-R1, (2S)-1-(nitrooxy)ethyl 2-(6-methoxynaphthalen-2-yl)propanoate]
Development of gastric ulcers or lesions [3]: none of the animals
Release of parent drug on incubation in SGF (in words) [1]: released quantitative amounts of the parent drug, naproxen

Release of parent drug on incubation in SGF (in words) [1]: released naproxen
Prodrug Remaining (%) [1, 5]: 100%
t1/2 of prodrug in SGF [1, 12]: ~1 h
Prodrug Remaining (%) [1, 6]: 94.33%
Prodrug Remaining (%) [1, 7]: 90.43%
Prodrug Remaining (%) [1, 8]: 62.15%
Prodrug Remaining (%) [1, 9]: 51.01%
Prodrug Remaining (%) [1, 10]: 39.08%
Prodrug Remaining (%) [1, 11]: 6.77%
Compound: CCC(OC(=O)[C@@H](C)c1ccc2cc(OC)ccc2c1)O[N+](=O)[O-] (stereo partly drawn) [I-D2-R2, (2S)-1-(nitrooxy)propyl 2-(6-methoxynaphthalen-2-yl)propanoate]

Release of parent drug on incubation in SGF (in words) [1]: released naproxen
Prodrug Remaining (%) [1, 5]: 100%
t1/2 of prodrug in SGF [1, 12]: ~2.5 h
Prodrug Remaining (%) [1, 6]: 96.35%
Prodrug Remaining (%) [1, 7]: 93.61%
Prodrug Remaining (%) [1, 8]: 82.73%
Prodrug Remaining (%) [1, 9]: 75.48%
Prodrug Remaining (%) [1, 10]: 57.55%
Prodrug Remaining (%) [1, 11]: 39.00%
Compound: CCCC(OC(=O)[C@@H](C)c1ccc2cc(OC)ccc2c1)O[N+](=O)[O-] (stereo partly drawn) [I-D2-R3, (2S)-1-(nitrooxy)butyl 2-(6-methoxynaphthalen-2-yl)propanoate]

Prodrug Remaining (%) [1, 5]: 100.00%
Prodrug Remaining (%) [1, 6]: 100.00%
Prodrug Remaining (%) [1, 7]: 100.00%
Prodrug Remaining (%) [1, 8]: 100.00%
Prodrug Remaining (%) [1, 9]: 100.00%
Prodrug Remaining (%) [1, 10]: 100.00%
Prodrug Remaining (%) [1, 11]: 100.00%
Compound: COc1ccc2cc([C@H](C)C(=O)OCCCO[N+](=O)[O-])ccc2c1 [II-D2-X3, reference compound]

Prodrug Remaining (%) [1, 5]: 100.00%
Prodrug Remaining (%) [1, 6]: 100.00%
Prodrug Remaining (%) [1, 7]: 100.00%
Prodrug Remaining (%) [1, 8]: 100.00%
Prodrug Remaining (%) [1, 9]: 100.00%
Prodrug Remaining (%) [1, 10]: 100.00%
Prodrug Remaining (%) [1, 11]: 100.00%
Compound: COc1ccc2cc([C@H](C)C(=O)OCCCCO[N+](=O)[O-])ccc2c1 [II-D2-X4, reference compound]
